Test results published in publication PMC8277129, “Bioconcentration of Several Series of Cationic Surfactants in Rainbow Trout” (Environmental Science & Technology, 2021).
Where “and” joins values, the source holds several entries; their conditions need not be identical. Equal values may be shown once. Read-outs that look alike come from different tables or passages of the source. Marks after values point to notes of the source that are not given here. One block for each compound: values may come before it.

Assays:
[1] = Membrane-water partition coefficient of the charged form (DMLW,C); type: physicochemical; conditions: extrapolated from Timmer and Droge (2017)
Experimental: Table S3: Test chemical properties
Abbr. pKa$ Log DOC§ Log DMLW,C# SMILES
$ pKa values derived/reported for different alkylamine type analogues. The selected value is expected to be independent of chain length for all longer chain homologues, using a weighted value obtained from the different sources with more focus on experimental data:
Algorithm / simulated data Experimental reference data (25 °C)
Chem ACD/ COSMO- selected
(https://echa.europa.eu/registration-dossier/-

gills of rainbow trout = experiment: Mechanistic one-box mass balance model of gill uptake and elimination; conditions: for predicted gill elimination rate constant eq 1 (k2): from measured kU and modeled αW, αB, DFW
Description: To gain more mechanistic insight into the results, we formulated a simple one-box mass balance model of chemical bioconcentration in fish that considered diffusive uptake and elimination across the gills as well as biotransformation.[33] The flow of water across the gills and the flow of blood through the gills were modeled as perfusion limited resistances that constrain gill uptake and elimination. […] Consequently, these resistances are unknowns. Ion trapping effects caused by differences in pH between water at the gill surface and blood in the gills are considered, drawing on previous work on the uptake and elimination of ionizable organic chemicals across the gills of rainbow trout.[22],[23] Partitioning of the chemical from the dissolved phase into blood and into whole fish was calculated as the product of the membrane lipid–water distribution ratio (DMLW,T, including partitioning of both the neutral and the charged forms) and the fraction of membrane lipid in blood and whole fish. A detailed description of the model is provided in the SI (Text S3).
The contribution of the water perfusion and blood perfusion resistances were compared with the overall resistance for transport across the gills from water to blood (RW→B), which was calculated from the measured kU according to equation S4.3. […] For all of the other chemicals the blood resistance is insignificant compared to the overall resistance.
The rate constant for elimination across the gills, k2, can be defined as follows: [drawing 1] 1 where αB and αW are the neutral fractions of the chemical in the blood and in the water at the gill surface, respectively, and DFW is the fish-water distribution ratio of the chemical at the pH of blood (8.1) (see Text S3). Using the measured kU and the values of αW, αB, and DFW estimated for the model, k2 was calculated (Table 2).

[2] = parameters: method as in Perrin 1965, SRC, REACH, Perrin 1972, Hall 1957; conditions: ref Perrin 1965, SRC, REACH, Perrin 1972, Hall 1957, cited from earlier work; for pKa used (selected value): selected per amine type, weighted from simulated and experimental analogue data; for pKa, experimental reference data: 25 °C
[3] = Bioconcentration (BCF) experiment based on OECD 305, aqueous exposure to surfactant mixtures; type: in vivo, Oncorhynchus mykiss; conditions: pH 7.6 (MIX1, MIX2); whole fish; read-out: measured total elimination rate constant (kT) (converted)
Experimental: (§1) Juvenile rainbow trout were purchased from EM lax in Västervik, Sweden, and held in the aquaria facility for one month prior to starting the experiment on August 28, 2018. Ethical approval for the experiments was obtained from Stockholm’s djurförsöksetiska nämnd (decision 9967–2017). The experiment was conducted in six 350 L fiberglass aquaria with a water renewal rate of 1.5 L min^–1 corresponding to a turnover time of […]. The water temperature and the air temperature in the aquaria room were 10 °C. The lighting was dim and programmed on a 12 h light/12 h dark cycle.
(§2) Three BCF experiments were conducted, one each for MIX1 and MIX2 at pH ∼7.6 (denoted MIX1 and MIX2 in the following), and one for MIX1 at pH ∼6.2 (MIX1pH). Each experiment consisted of a 14 d exposure phase and a 28 d depuration phase. There were also two control aquaria where unexposed fish were kept, one at pH 7.6 and one at pH 6.2. For the pH 6.2 aquaria, a 20% v:v formic acid solution was pumped into a premixing basin where it was mixed with the inflowing water before entering the aquarium. pH sensors monitored pH in the premixing basin and the aquarium. The pH for the MIX1 and MIX2 experiments was governed by the pH of the water supply. Water samples were collected at 8 time points during each experiment for the determination of pH and alkalinity. Water samples were collected daily during the exposure phase for determination of total organic carbon (TOC), which was measured with NDIR detection after acidification, purging and high-temperature catalytic combustion (Shimadzu TOC-L).
(§3) For the exposure phase, a methanol solution of the test chemical mixture was infused continuously at 4.0 μL min^–1 into the water inflow of the aquarium using a syringe pump. The target concentrations of the chemicals in water ranged from 2.5 to 100 μg L^–1 (Table 1). They were selected to be as low as possible to minimize the risk of toxic effects while still being high enough to enable collection of high-quality data, building on the results of the tissue distribution experiment.[32] The syringe pump was started in an aquarium containing no fish. After 16 h to allow the concentrations to stabilize, ∼80 rainbow trout were transferred to the aquarium. Over the following 14 d water samples were collected and fish were sacrificed according to the schedule in Table S5. The remaining fish were then transferred to a second aquarium that received water without chemical addition. Over the following 28 d further water samples were collected and fish were sacrificed (Table S5).
(§4) At each fish sampling, 4–6 fish were sacrificed. Fish were also sampled periodically from the control aquaria. Following stunning and severance of the spinal cord, the fish were placed in a polyethylene bag, weighed, and immediately frozen at −20 °C. The median fish weight at sacrifice was 10.94 g, with a 25th and 75th percentile of 8.43 and 13.58 g, respectively.
(§5) Three fish from each time point were prioritized for analysis based on proximity to the median fish weight. Each fish was semithawed, cut into 3–4 pieces, and homogenized with an Ultra-Turrax device. 150 mg of the homogenate was transferred to a preweighed 13 mL polypropylene tube, centrifuged to a pellet, and weighed. 50 μL of methanol was added and the prepared aliquot was frozen. For extraction internal standard solution (isotope labeled standards of Q10 (D21), Q14 (D29), and P16 (D33)), 3 mL of methanol and 3 steel balls (3.2 mm diameter) were added to the prepared aliquot. This mixture was mixed in a bullet blender for 1 min, and then placed in an ultrasound bath at 50 °C for 60 min. Following centrifugation, the supernatant was decanted and the extraction was repeated. The extracts were combined and a portion corresponding to 25–50 mg homogenate was cleaned up on a weak cationic exchange SPE column (WCX, 60 mg) as described elsewhere.[32] […]

[4] = test system: juvenile rainbow trout (Oncorhynchus mykiss); experiment: as above; type: in vivo; conditions: for uptake rate constant (kU): 14 d exposure, 28 d depuration; for uptake rate constant (kU) / BCF (kU/kT) / measured total elimination rate constant (kT): whole fish; for factor by which BCF is lower for the QAC than for the tertiary amine with the same chain length: pH 7.6, Q10 vs T10, Q14 vs T14
Experimental: as §1, §2, §3, §4, §5

[5] = ref Timmer and Droge (2017); cited from earlier work
[6] = parameters: method as in REACH dossier; conditions: aqueous; ref REACH dossier; cited from earlier work

- Log DMLW,C (membrane-water partition coefficient of the charged form) [1]: 6.16
- factor by which k2 was less than kT (gills of rainbow trout): ~10
- k2/kT (gills of rainbow trout; pH 7.6 (MIX1, MIX2)): 0.17
- predicted gill elimination rate constant eq 1 (k2) (gills of rainbow trout; pH 7.6 (MIX1, MIX2)): 0.0006 h^–1
- k el [3]: 9.44e-07 s⁻¹
- uptake rate constant (kU) ([4]; pH 7.6 (MIX1, MIX2), 10 °C): 4.8 L kg^–1 h^–1
- BCF (kU/kT) ([4]; pH 7.6 (MIX1, MIX2)): 1390 L kg^–1
Compound: CCCCCCCCCCCCCN [P13, Tridecylamine]
- pKa used (selected value) [2]: C13NH2 (10.6)

- BCF (kU/kT) ([4]; pH 7.6 (MIX1, MIX2)): <0.2 ^c L kg^–1
- factor by which BCF is lower for the QAC than for the tertiary amine with the same chain length [4]: > 670
Compound: CCCCCCCCCC[N+](C)(C)C [Q10, N,N,N-trimethyl-1-decylammonium]
- Log DMLW,C (membrane-water partition coefficient of the charged form) [5]: 3.34

- initial rapid sorption as share of the cumulative uptake over 14 d ([4]; 14 d exposure phase): < 5%
- factor by which BCF is lower at pH 6.2 than at pH 7.6 ([4]; MIX1 vs MIX1pH): no influence of pH on BCF
- factor by which kU is lower at pH 6.2 than at pH 7.6 ([4]; MIX1 vs MIX1pH): the same
- uptake rate constant (kU) ([4]; pH 6.2 (MIX1pH)): 0.121 L kg^–1 h^–1
- BCF (kU/kT) ([4]; pH 6.2 (MIX1pH)): 55 L kg^–1
- measured total elimination rate constant (kT) ([4]; pH 6.2 (MIX1pH)): 0.0022 h^–1
- uptake rate constant (kU) ([4]; pH 7.6 (MIX1, MIX2), 10 °C): 0.104 L kg^–1 h^–1
- BCF (kU/kT) ([4]; pH 7.6 (MIX1, MIX2)): 51 L kg^–1
- measured total elimination rate constant (kT) ([4]; pH 7.6 (MIX1, MIX2)): 0.0020 h^–1
- factor by which BCF is lower for the QAC than for the tertiary amine with the same chain length [4]: 160
Compound: CCCCCCCCCCCCCC[N+](C)(C)C [Q14, N,N,N-trimethyl-1-tetradecylammonium]
- Log DMLW,C (membrane-water partition coefficient of the charged form) [5]: 5.46

- k2/kT (gills of rainbow trout; pH 6.2 (MIX1pH)): 4.1
- predicted gill elimination rate constant eq 1 (k2) (gills of rainbow trout; pH 6.2 (MIX1pH)): 0.53 h^–1
- factor by which k2 exceeded kT (gills of rainbow trout; pH 6.2 experiment): 4
- factor by which k2 exceeded kT (gills of rainbow trout; pH 7.6): ~5
- k2/kT (gills of rainbow trout; pH 7.6 (MIX1, MIX2)): 5.0
- predicted gill elimination rate constant eq 1 (k2) (gills of rainbow trout; pH 7.6 (MIX1, MIX2)): 0.37 h^–1
- factor by which BCF is lower at pH 6.2 than at pH 7.6 ([4]; MIX1 vs MIX1pH): 17
- factor by which kT is greater at pH 6.2 than at pH 7.6 ([4]; MIX1 vs MIX1pH): 1.7
- factor by which kU is lower at pH 6.2 than at pH 7.6 ([4]; MIX1 vs MIX1pH): 10
- uptake rate constant (kU) ([4]; pH 6.2 (MIX1pH)): 1.02 L kg^–1 h^–1
- BCF (kU/kT) ([4]; pH 6.2 (MIX1pH)): 7.9 L kg^–1
- measured total elimination rate constant (kT) ([4]; pH 6.2 (MIX1pH)): 0.129 h^–1
- uptake rate constant (kU) ([4]; pH 7.6 (MIX1, MIX2), 10 °C): 9.9 L kg^–1 h^–1
- BCF (kU/kT) ([4]; pH 7.6 (MIX1, MIX2)): 134 L kg^–1
- measured total elimination rate constant (kT) ([4]; pH 7.6 (MIX1, MIX2)): 0.074 h^–1
Compound: CCCCCCCCCCN(C)C [T10, N,N-dimethyldecylamine]
- Log DMLW,C (membrane-water partition coefficient of the charged form) [5]: 3.65
- pKa used (selected value) [2]: C10N(CH3)2 (10.0)

Compound: CCCCCCCCCCCCCC[N+](C)(C)Cc1ccccc1.[Cl-] [benzyldimethyltetradecylazanium chloride]
- SURFACE TENSION [6]: 34.5 mN/m

Compound: CCCCCCCCCCCCCCCCCCN(C)C [dimethyl(octadecyl)amine]
- SURFACE TENSION [6]: 32.2 mN/m

Compound: CCCCCCCCCCCCN [dodecan-1-amine]
- SURFACE TENSION [6]: 23.1 mN/m

Compound: CCCCCCN [hexylamine, reference compound]
- pKa, experimental reference data [2]: 10.64

Compound: CCCCCCCCCCCCCCCCCCN [octadecan-1-amine]
- SURFACE TENSION [6]: 23.9 mN/m

Compound: CCCCCCCCN [octan-1-amine]
- SURFACE TENSION [6]: 44.2 mN/m

Compound: CCCCCCCCN [octylamine, reference compound]
- pKa, experimental reference data [2]: 10.7 and 10.6
